Measured values: ChEMBL document CHEMBL3885881, “DrugMatrix”

Species: Rattus norvegicus
Assay: DrugMatrix - Regimen: Daily Repeat
Format: toxicity, organism-based, Sprague-Dawley
Design: regimen Daily Repeat, gender Male, age 6-8 weeks
Details: in vivo, sc, route subcutaneous, […]; for ABSOLUTE BASOPHIL / ABSOLUTE EOSINOPHIL / ABSOLUTE LYMPHOCYTE / ABSOLUTE MONOCYTE / ABSOLUTE SEGMENTED NEUTROPHIL / BASOPHIL / EOSINOPHIL / ERYTHROCYTE COUNT / HEMATOCRIT / HEMOGLOBIN / LEUKOCYTE COUNT / LYMPHOCYTE / MEAN CORPUSCULAR HEMOGLOBIN / MEAN CORPUSCULAR HEMOGLOBIN CONCENTRATION / MEAN CORPUSCULAR VOLUME / MONOCYTE / NEUTROPHIL / NUCLEATED RED BLOOD CELLS / PLATELET COUNT: tissue Blood; for ALANINE AMINOTRANSFERASE / ALBUMIN / ALKALINE PHOSPHATASE / ASPARTATE AMINOTRANSFERASE / BLOOD UREA NITROGEN / CARBON DIOXIDE / CHLORIDE / CHOLESTEROL / CREATINE PHOSPHOKINASE / CREATININE / GLUCOSE / LACTATE DEHYDROGENASE / LIPASE / PHOSPHORUS / POTASSIUM / SODIUM / TOTAL BILIRUBIN / TOTAL PROTEIN / URIC ACID: tissue Plasma
[1] = 3 mg/kg, 72 h, dose level Low, time 3 day
[2] = 3 mg/kg, 120 h, dose level Low, time 5 day
[3] = 1500 mg/kg, 72 h, dose level High, time 3 day
[4] = 1500 mg/kg, 120 h, dose level High, time 5 day

Clc1ccc(CO/N=C(\Cn2ccnc2)c2ccc(Cl)cc2Cl)c(Cl)c1 [OXICONAZOLE]
ABSOLUTE BASOPHIL [1]: 0 CELLS/uL | ABSOLUTE EOSINOPHIL [1]: 0 CELLS/uL | ABSOLUTE LYMPHOCYTE [1]: 11885.67 CELLS/uL | ABSOLUTE MONOCYTE [1]: 211.33 CELLS/uL | ABSOLUTE SEGMENTED NEUTROPHIL [1]: 736.33 CELLS/uL | BASOPHIL [1]: 0% | EOSINOPHIL [1]: 0% | ERYTHROCYTE COUNT [1]: 5.9 x10E6/uL | HEMATOCRIT [1]: 37.23% | HEMOGLOBIN [1]: 14.13 G/DL | LEUKOCYTE COUNT [1]: 12.83 x10E3/uL | LYMPHOCYTE [1]: 92.33% | MEAN CORPUSCULAR HEMOGLOBIN [1]: 24 pg | MEAN CORPUSCULAR HEMOGLOBIN CONCENTRATION [1]: 38 G/DL | MEAN CORPUSCULAR VOLUME [1]: 63.17 fL | MONOCYTE [1]: 1.67% | NEUTROPHIL [1]: 6% | NUCLEATED RED BLOOD CELLS [1]: 0 /100WBC | PLATELET COUNT [1]: 1370 x10E3/uL | ALANINE AMINOTRANSFERASE [1]: 44 u/L | ALBUMIN [1]: 4.63 G/DL | ALKALINE PHOSPHATASE [1]: 333.33 u/L | ASPARTATE AMINOTRANSFERASE [1]: 101.67 u/L | BLOOD UREA NITROGEN [1]: 18.33 mg/dL | CARBON DIOXIDE [1]: 21.33 mmol/L | CHLORIDE [1]: 96 MEQ/L | CHOLESTEROL [1]: 92.67 mg/dL | CREATINE PHOSPHOKINASE [1]: 602 u/L | CREATININE [1]: 0.2 mg/dL | GLUCOSE [1]: 137 mg/dL | LACTATE DEHYDROGENASE [1]: 701 u/L | LIPASE [1]: 10 u/L | PHOSPHORUS [1]: 12.9 mg/dL | POTASSIUM [1]: 6.82 MEQ/L | SODIUM [1]: 140.17 MEQ/L | TOTAL BILIRUBIN [1]: 0.17 mg/dL | TOTAL PROTEIN [1]: 6.4 G/DL | URIC ACID [1]: 1.77 mg/dL | ABSOLUTE BASOPHIL [2]: 0 CELLS/uL | ABSOLUTE EOSINOPHIL [2]: 80 CELLS/uL | ABSOLUTE LYMPHOCYTE [2]: 13140 CELLS/uL | ABSOLUTE MONOCYTE [2]: 187.67 CELLS/uL | ABSOLUTE SEGMENTED NEUTROPHIL [2]: 1059 CELLS/uL | BASOPHIL [2]: 0% | EOSINOPHIL [2]: 0.67% | ERYTHROCYTE COUNT [2]: 5.43 x10E6/uL | HEMATOCRIT [2]: 34.63% | HEMOGLOBIN [2]: 13.57 G/DL | LEUKOCYTE COUNT [2]: 14.47 x10E3/uL | LYMPHOCYTE [2]: 91% | MEAN CORPUSCULAR HEMOGLOBIN [2]: 25 pg | MEAN CORPUSCULAR HEMOGLOBIN CONCENTRATION [2]: 39.17 G/DL | MEAN CORPUSCULAR VOLUME [2]: 63.83 fL | MONOCYTE [2]: 1.33% | NEUTROPHIL [2]: 7% | NUCLEATED RED BLOOD CELLS [2]: 0 /100WBC | PLATELET COUNT [2]: 1246.67 x10E3/uL | ALANINE AMINOTRANSFERASE [2]: 45.67 u/L | ALBUMIN [2]: 4.03 G/DL | ALKALINE PHOSPHATASE [2]: 333 u/L | ASPARTATE AMINOTRANSFERASE [2]: 70.33 u/L | BLOOD UREA NITROGEN [2]: 14 mg/dL | CARBON DIOXIDE [2]: 27.33 mmol/L | CHLORIDE [2]: 101 MEQ/L | CHOLESTEROL [2]: 71.33 mg/dL | CREATINE PHOSPHOKINASE [2]: 209.67 u/L | CREATININE [2]: 0.12 mg/dL | GLUCOSE [2]: 150 mg/dL | LACTATE DEHYDROGENASE [2]: 187.33 u/L | LIPASE [2]: 8.67 u/L | PHOSPHORUS [2]: 11 mg/dL | POTASSIUM [2]: 6.62 MEQ/L | SODIUM [2]: 144.57 MEQ/L | TOTAL BILIRUBIN [2]: 0.23 mg/dL | TOTAL PROTEIN [2]: 5.9 G/DL | URIC ACID [2]: 1.23 mg/dL | ABSOLUTE BASOPHIL [3]: 0 CELLS/uL | ABSOLUTE EOSINOPHIL [3]: 0 CELLS/uL | ABSOLUTE LYMPHOCYTE [3]: 11731.33 CELLS/uL | ABSOLUTE MONOCYTE [3]: 603.33 CELLS/uL | ABSOLUTE SEGMENTED NEUTROPHIL [3]: 4732 CELLS/uL | BASOPHIL [3]: 0% | EOSINOPHIL [3]: 0% | ERYTHROCYTE COUNT [3]: 4.99 x10E6/uL | HEMATOCRIT [3]: 31.07% | HEMOGLOBIN [3]: 12.4 G/DL | LEUKOCYTE COUNT [3]: 17.07 x10E3/uL | LYMPHOCYTE [3]: 69.67% | MEAN CORPUSCULAR HEMOGLOBIN [3]: 24.97 pg | MEAN CORPUSCULAR HEMOGLOBIN CONCENTRATION [3]: 39.93 G/DL | MEAN CORPUSCULAR VOLUME [3]: 62.43 fL | MONOCYTE [3]: 3.67% | NEUTROPHIL [3]: 26.67% | NUCLEATED RED BLOOD CELLS [3]: 0 /100WBC | PLATELET COUNT [3]: 1249.67 x10E3/uL | ALANINE AMINOTRANSFERASE [3]: 40.33 u/L | ALBUMIN [3]: 3.03 G/DL | ALKALINE PHOSPHATASE [3]: 327 u/L | ASPARTATE AMINOTRANSFERASE [3]: 65.67 u/L | BLOOD UREA NITROGEN [3]: 12.33 mg/dL | CARBON DIOXIDE [3]: 22.33 mmol/L | CHLORIDE [3]: 98.67 MEQ/L | CHOLESTEROL [3]: 62.67 mg/dL | CREATINE PHOSPHOKINASE [3]: 173 u/L | CREATININE [3]: 0.17 mg/dL | GLUCOSE [3]: 131 mg/dL | LACTATE DEHYDROGENASE [3]: 217 u/L | LIPASE [3]: 9 u/L | PHOSPHORUS [3]: 12.47 mg/dL | POTASSIUM [3]: 6.61 MEQ/L | SODIUM [3]: 143.17 MEQ/L | TOTAL BILIRUBIN [3]: 0.1 mg/dL | TOTAL PROTEIN [3]: 6.03 G/DL | URIC ACID [3]: 1.7 mg/dL | ABSOLUTE BASOPHIL [4]: 0 CELLS/uL | ABSOLUTE EOSINOPHIL [4]: 0 CELLS/uL | ABSOLUTE LYMPHOCYTE [4]: 17693 CELLS/uL | ABSOLUTE MONOCYTE [4]: 655 CELLS/uL | ABSOLUTE SEGMENTED NEUTROPHIL [4]: 5318.67 CELLS/uL | BASOPHIL [4]: 0% | EOSINOPHIL [4]: 0% | ERYTHROCYTE COUNT [4]: 5.09 x10E6/uL | HEMATOCRIT [4]: 30.4% | HEMOGLOBIN [4]: 12.37 G/DL | LEUKOCYTE COUNT [4]: 23.67 x10E3/uL | LYMPHOCYTE [4]: 76.67% | MEAN CORPUSCULAR HEMOGLOBIN [4]: 24.3 pg | MEAN CORPUSCULAR HEMOGLOBIN CONCENTRATION [4]: 40.7 G/DL | MEAN CORPUSCULAR VOLUME [4]: 59.73 fL | MONOCYTE [4]: 3% | NEUTROPHIL [4]: 20.33% | NUCLEATED RED BLOOD CELLS [4]: 0.33 /100WBC | PLATELET COUNT [4]: 1767.33 x10E3/uL | ALANINE AMINOTRANSFERASE [4]: 33.33 u/L | ALBUMIN [4]: 2.7 G/DL | ALKALINE PHOSPHATASE [4]: 254.33 u/L | ASPARTATE AMINOTRANSFERASE [4]: 66.33 u/L | BLOOD UREA NITROGEN [4]: 16.67 mg/dL | CARBON DIOXIDE [4]: 24.33 mmol/L | CHLORIDE [4]: 103.33 MEQ/L | CHOLESTEROL [4]: 55.67 mg/dL | CREATINE PHOSPHOKINASE [4]: 192.33 u/L | CREATININE [4]: 0.13 mg/dL | GLUCOSE [4]: 142.33 mg/dL | LACTATE DEHYDROGENASE [4]: 225.33 u/L | LIPASE [4]: 7.67 u/L | PHOSPHORUS [4]: 11.27 mg/dL | POTASSIUM [4]: 6.81 MEQ/L | SODIUM [4]: 144.57 MEQ/L | TOTAL BILIRUBIN [4]: 0.1 mg/dL | TOTAL PROTEIN [4]: 5.87 G/DL | URIC ACID [4]: 1.87 mg/dL
